Laboratory results: BigSolDB 2.1

C=C(C)[C@@H]1CC[C@]2(CO)CC[C@]3(C)[C@H](CC[C@@H]4[C@@]5(C)CC[C@H](O)C(C)(C)[C@@H]5CC[C@]43C)[C@@H]12
solubility (mole fraction)
Conditions	278.2 K	283.2 K	288.2 K	298.2 K	308.2 K
in acetone	0.000556	–	0.000866	0.00158	0.00227
in chloroform	0.0026	–	0.00338	0.00437	0.00511
in cyclohexane	–	1.68e-05	2.7e-05	6.34e-05	0.000167
in dichloromethane	0.00079	0.000837	0.000897	0.000991	–
in ethanol	0.000579	–	0.000658	0.000898	0.00113
in ethyl acetate	0.000963	–	0.00155	0.00207	0.00305
in ethyl formate	0.000301	–	0.000316	0.000333	0.000395
in methanol	0.000179	–	0.000248	0.000328	0.000397
in methyl acetate	0.000598	–	0.000705	0.000797	0.000917
in methyl formate	0.000187	0.000212	0.000257	0.000316	–
in n-butanol	0.00181	–	0.00213	0.00238	0.00271
in n-hexanol	0.000744	–	0.000846	0.00102	0.00127
in n-pentanol	0.00095	–	0.0012	0.00143	0.00171
in n-propanol	0.00113	–	0.00127	0.00146	0.0016
